In this assay the target is T1, human ΔF508-CFTR (Homo sapiens, UniProt P13569, DEL508-508).
T1 construct: expressed in transfected cells
Briefly: CFTR-YFP high throughput assay, CFTR corrector protocol (YFP iodide flux quench). It counts as cell-based. The settings on record: FRT cells expressing human ΔF508-CFTR and YFP-H148Q/I152L, 24-26 h incubation with compound; for Emax: normalized to the positive control, read-out: EMAX (% Efficacy, EMAX normalized to the positive control); for EC50: stimulated with 20 μM Forskolin & 30 μM P3. The method, then:
Assays for Detecting and Measuring the Effect of Compounds on dF508-CFTR Channels CFRT-YFP High Throughput Assay-CFTR Corrector Protocol:
This protocol is designed to selectively screen small molecule compounds for F508del CFTR corrector activities in the HTS YFP flux assay. In this protocol, the cells are incubated with testing compounds for 24 hours, washed with PBS, stimulated with forskolin and a standard potentiator, and read on a 384-well HTS plate reader, such as the Hamamatsu FDDD-6000.
YFP fluorescence intensity is acquired at high speed before and after iodide buffer is injected to the assay cells. Iodide enters the cells via active CFTR channels in the plasma membrane, and quenches the YFP fluorescence. The rate of fluorescence quenching is proportionally related to the total CFTR activities in the cell membrane. dF508-CFTR corrector accelerates YFP quenching by increasing the number of CFTR molecules in the testing cell plasma membrane.
This method was initially developed for bench top plate readers (Galietta et al., 2001), and was adapted to the HTS format (Sui et al. Assay Drug Dev. Technol. 2010).
Fisher Rat Thyroid (FRT) cells stably expressing both human ΔF508-CFTR and a halide-sensitive yellow fluorescent protein (YFP-H148Q/I152L 25,22) (Galietta et al., Am. J. Physiol Cell Physiol, 281(5), C1734, 2001) were cultured on plastic surface in Coon's modified Ham's F12 medium supplemented with FBS 10%, L-glutamine 2 mM, penicillin 100 U/ml, and streptomycin 100 μg/ml. G418 (0.75-1.0 mg/ml) and zeocin (3.2 ug/ml) were used for selection of FRT cells expressing ΔF508-CFTR and YFP. For primary screening, FRT cells were plated into 384-well black wall, transparent bottom microtiter plates (Costar; Corning Inc.) at a cell density of 20,000-40,000 per well. Test compound was applied to the cells at varying concentrations ranging from 2 nM-[…] in either a 2-fold or 3-fold dilution series. Cells were incubated in a cell culture incubator at 37° C. with 5% CO2 for 24-26 h. Assay plates were washed with DPBS media (Thermo, cat #SH30028.02) to remove unbound cells and compound. Stimulation media (25 μL) containing 20 μM Forskolin & 30 μM P3 [6-(Ethyl-phenyl-sulfonyl)-4-oxo-1,4-dihydro-quinoline-3-carboxylic acid 2-methoxy-benzylamide] in Hams F-12 coon's modified media was added to the plate wells and incubated at room temperature for 60-120 min. 25 μL of HEPES-PBS -I buffer (10 mM HEPES, 1 mM MgCl2, 3 mM KCl, 1 mM CaCl2, 150 mM NaI) was then added and fluorescence quench curves (Excitation 500 nm/Emission 540 nm; exposure 136 ms) were immediately recorded on an FDSS-6000 plate reader (Hamamatsu). Quench rates were derived from least squares fitting of the data as described by Sui et al. (2010).

The results in this text go back to patent US9771327B2, “Compounds and methods for the treatment of cystic fibrosis” (FLATLEY DISCOVERY LAB, LLC, priority 2013, dated 2017).

Some results are limits rather than exact numbers.

T1 sequence (P13569 with tags, fused parts or gaps DEL508-508): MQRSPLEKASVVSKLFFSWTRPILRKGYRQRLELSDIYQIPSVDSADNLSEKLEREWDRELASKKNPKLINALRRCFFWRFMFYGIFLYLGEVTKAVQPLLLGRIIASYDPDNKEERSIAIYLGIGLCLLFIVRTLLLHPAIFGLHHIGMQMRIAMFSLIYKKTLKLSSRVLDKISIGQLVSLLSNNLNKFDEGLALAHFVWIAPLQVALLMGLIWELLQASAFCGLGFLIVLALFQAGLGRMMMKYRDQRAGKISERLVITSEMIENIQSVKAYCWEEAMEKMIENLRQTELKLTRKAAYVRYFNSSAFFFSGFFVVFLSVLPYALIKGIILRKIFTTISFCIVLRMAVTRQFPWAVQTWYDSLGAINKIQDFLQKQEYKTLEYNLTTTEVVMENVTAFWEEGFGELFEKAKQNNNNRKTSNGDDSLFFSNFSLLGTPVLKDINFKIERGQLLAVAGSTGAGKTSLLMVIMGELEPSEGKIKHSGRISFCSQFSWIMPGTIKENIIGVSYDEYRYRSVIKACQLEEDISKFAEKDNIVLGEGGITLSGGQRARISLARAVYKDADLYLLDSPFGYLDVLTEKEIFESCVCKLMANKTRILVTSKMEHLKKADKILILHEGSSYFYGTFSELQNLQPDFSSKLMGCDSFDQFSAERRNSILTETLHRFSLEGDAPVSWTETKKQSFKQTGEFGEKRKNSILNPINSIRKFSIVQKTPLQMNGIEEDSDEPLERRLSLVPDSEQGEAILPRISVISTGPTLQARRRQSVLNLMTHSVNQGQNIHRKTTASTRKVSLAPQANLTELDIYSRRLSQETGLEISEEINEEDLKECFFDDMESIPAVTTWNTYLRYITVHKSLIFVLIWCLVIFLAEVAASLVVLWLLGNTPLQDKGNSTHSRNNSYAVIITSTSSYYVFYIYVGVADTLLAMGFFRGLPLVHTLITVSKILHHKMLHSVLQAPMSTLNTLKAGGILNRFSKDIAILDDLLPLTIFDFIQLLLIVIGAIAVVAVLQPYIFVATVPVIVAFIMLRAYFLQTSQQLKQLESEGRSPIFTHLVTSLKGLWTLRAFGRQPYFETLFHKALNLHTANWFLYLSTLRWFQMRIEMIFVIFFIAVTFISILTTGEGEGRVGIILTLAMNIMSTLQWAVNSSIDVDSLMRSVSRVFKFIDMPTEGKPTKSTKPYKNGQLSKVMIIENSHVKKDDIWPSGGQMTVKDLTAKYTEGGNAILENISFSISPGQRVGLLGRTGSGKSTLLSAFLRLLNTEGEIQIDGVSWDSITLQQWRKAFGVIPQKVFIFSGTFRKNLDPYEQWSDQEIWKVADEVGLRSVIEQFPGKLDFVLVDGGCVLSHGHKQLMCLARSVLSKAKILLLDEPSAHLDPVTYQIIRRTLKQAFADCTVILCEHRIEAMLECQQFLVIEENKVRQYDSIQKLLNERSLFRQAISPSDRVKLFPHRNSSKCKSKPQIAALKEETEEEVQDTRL

Take `COc1ccc(S(=O)(=O)N2CCC(n3c(-c4ccncc4)nc4cccnc43)CC2)cc1Cl` [Example 28]: the Emax (in general, the size of the effect at its maximum, as opposed to the concentration needed) lay within 30 to 80% and the EC50 (in general, the concentration giving half of the maximal effect) is less than 10 µM.
`Cc1ccc2nc(-c3ccccc3Cl)n(C3CCN(S(=O)(=O)c4ccc5c(c4)OCO5)CC3)c2n1` [Example 2]: the Emax lay within 30 to 80% and the EC50 was less than 10 µM.
As to `COc1ccc(S(=O)(=O)N2CCC(n3c(-c4cccc(Cl)c4)nc4cccnc43)CC2)cc1Cl` [Example 22], the Emax lay within 30 to 80% and the EC50 is less than 10 µM.
The corresponding values for `COc1ccc(S(=O)(=O)N2CCC(n3c(-c4cccnc4)nc4cccnc43)CC2)cc1Cl` [Example 27] are 30 to 80% and less than 10 µM.
The corresponding values for `COc1ccc(S(=O)(=O)N2CCC(n3c(-c4ccc(C)cc4)nc4cccnc43)CC2)cc1Cl` [Example 24] are 30 to 80% and less than 10 µM.
On the same counts, the results for `Cc1ccc(S(=O)(=O)N2CCC(n3c(-c4ccccc4)nc4cccnc43)CC2)cc1Cl` [Example 20] are 30 to 80% and less than 10 µM.
For `COc1cc(S(=O)(=O)N2CCC(n3c(-c4ccccc4)nc4cccnc43)CC2)ccc1Cl` [Example 37], the maximum response (Emax) is 30 to 80% and the EC50 is less than 10 µM.
Consider `COc1ccc(S(=O)(=O)N2CCC(n3c(-c4ccc(Cl)cc4Cl)nc4cccnc43)CC2)cc1Cl` [Example 12, 3-(1-((3-Chloro-4-methoxyphenyl)sulfonyl)piperidin-4-yl)-2-(2,4-dichlorophenyl)-3H-imidazo[4,5-b]pyridine], for which the Emax lay within 10 to 30% and the EC50 is less than 10 µM.
Turning to `COc1ccc(S(=O)(=O)N2CCC(n3c(-c4cnc[nH]4)nc4cccnc43)CC2)cc1Cl` [Example 32], the Emax was in the range of 30 to 80% and the EC50 is more than 20 µM.
For `COc1ccc(S(=O)(=O)N2CCC(n3c(-c4ccccc4)nc4cccnc43)CC2)cc1F` [Example 18], the maximum response (Emax) fell in the range of 30 to 80% and the EC50 is less than 10 µM.
Regarding `COc1ccc(S(=O)(=O)N2CCC(n3c(-c4ccccc4O)nc4cccnc43)CC2)cc1Cl` [Example 9, 2-(3-(1-((3-Chloro-4-methoxyphenyl)sulfonyl)piperidin-4-yl)-3H-imidazo[4,5-b]pyridin-2-yl)phenol], the Emax lay within 30 to 80% and the EC50 is less than 10 µM.
Turning to `COc1ccc(S(=O)(=O)N2CCC(n3c(-c4ccccc4C)nc4cccnc43)CC2)cc1Cl` [Example 30], the Emax is 30 to 80% and the 50% effective concentration (EC50) is less than 10 µM.
With `CCc1ccc(S(=O)(=O)N2CCC(n3c(-c4ccccc4)nc4cccnc43)CC2)cc1` [Example 4, 3-(1-((4-Ethylphenyl)sulfonyl)piperidin-4-yl)-2-phenyl-3H-imidazo[4,5b]pyridine], the Emax lay in the range of 30 to 80% and the EC50 is more than 20 µM.
In the case of `COc1ccc(S(=O)(=O)N2CCC(n3c(-c4ccccc4)nc4cc(Cl)cnc43)CC2)cc1Cl` [Example 35], the Emax was in the range of 30 to 80% and the EC50 was less than 10 µM.
Regarding `Cc1ccc(S(=O)(=O)N2CCC(n3c(-c4ccccc4)nc4cccnc43)CC2)cc1` [Example 17], the Emax lay in the range of 30 to 80% and the EC50 was less than 10 µM.
Turning to `COc1ccc(S(=O)(=O)N2CCC(n3c(-c4cccc(C)c4)nc4cccnc43)CC2)cc1Cl` [Example 23], the Emax is more than 80% and the EC50 is less than 10 µM.
As to `COc1ccc(S(=O)(=O)N2CCC(n3c(C4CCCCC4)nc4cccnc43)CC2)cc1Cl` [Example 31], the Emax is 30 to 80% and the concentration giving a half-maximal response (EC50) is less than 10 µM.
`COc1ccc(S(=O)(=O)N2CCC(n3c(-c4nc5ccccc5[nH]4)nc4cccnc43)CC2)cc1Cl` [Example 33]: the Emax lay in the range of 30 to 80% and the EC50 was in the range of 10 to 20 µM.
Regarding `O=S(=O)(c1ccc2c(c1)OCO2)N1CCC(n2c(-c3ccccc3)nc3cccnc32)CC1` [Example 5, 3-(1-(Benzo[d][1,3]dioxol-5-ylsulfonyl)piperidin-4-yl)-2-phenyl-3H-imidazo[4,5-b]pyridine], the maximum response (Emax) lay in the range of 30 to 80% and the EC50 was less than 10 µM.
